In patent US9107905B2 (Agency for Science, Technology and Research, priority 2006, dated 2015):
Where two headings read alike, the source gives them in different places.

Experiments:
[1] = system: C. albicans yeast cells; assay: hyphal induction assay (germ tube formation, yeast-hypha switch); type: cell-based, Candida albicans; conditions: for EC50: read-out: I50 (hyphal induction); for hypha-inducing activity: result in words
[2] = biological target: GST-LRR fusion (LRR domain of CaCdc35p) (Candida albicans, UniProt A0A1D8PR83); assay: tryptophan fluorescence quenching of recombinant LRR domain; type: binding; conditions: for Kd: nonlinear regression of fluorescence quenching, read-out: equilibrium dissociation constant (Kd); for fluorescence quenching: result in words
Sequence of GST-LRR fusion (LRR domain of CaCdc35p) (A0A1D8PR83 entry or part of it): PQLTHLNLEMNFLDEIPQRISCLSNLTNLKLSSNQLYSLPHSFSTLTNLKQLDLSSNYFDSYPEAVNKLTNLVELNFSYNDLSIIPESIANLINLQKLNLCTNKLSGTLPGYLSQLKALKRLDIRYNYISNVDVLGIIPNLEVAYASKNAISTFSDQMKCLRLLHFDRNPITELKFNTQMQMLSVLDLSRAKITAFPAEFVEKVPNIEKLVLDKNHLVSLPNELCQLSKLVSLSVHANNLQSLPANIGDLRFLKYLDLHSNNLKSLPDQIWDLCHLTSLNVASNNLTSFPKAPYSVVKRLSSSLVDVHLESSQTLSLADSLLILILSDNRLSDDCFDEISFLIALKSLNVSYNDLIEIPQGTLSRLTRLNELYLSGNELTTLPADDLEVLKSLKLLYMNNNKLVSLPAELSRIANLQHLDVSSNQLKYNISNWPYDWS
Description: Since specific binding of a molecule to a tryptophan-containing protein may cause concentration-dependent quenching; of tryptophan fluorescence, fluorescence spectroscopy was used to measure the intensity of tryptophan fluorescence of the recombinant LRR domains in the presence of different concentrations of MLADiQ. […] The fluorescence spectrum of GST was not affected by any of the compounds used.

[3] = system: GST-LRR fusion protein (LRR domain of CaCdc35p); assay: circular dichroism (CD) spectroscopy of recombinant LRR domain; type: binding, Candida albicans
Description: Next, the possibility that MLA 71Q may directly bind to the LRR domain of CaCdc35p was explored. The wild-type LRR domain and that of Irr9mu were expressed in E. coli as glutathione-S-transferase (GST) fusions and purified to high homogeneity. Then circular dichroism (CD) spectroscopy was used to detect possible direct interaction between the LRR domain and MLADIQ. CD is a reliable tool in detecting conformational changes in a protein as a result of ligand binding (Woody, R. W. (1995). Methods Enzymol. 246, 34-71).

[4] = synthetic compounds and reference inducer

Row | SMILES | Kd [2] [µM] | fluorescence quenching [2] | shift of the ellipticity values of the CD spectra [3] | hypha-inducing activity [1] | EC50 [1, 4] [µM] | also measured
1 | C[C@H](NC(=O)[C@@H](C)O[C@H]1[C@H](O)[C@@H](CO)OC(O)[C@@H]1N)C(=O)O (stereo partly drawn) | 1.67 ± 0.13 | lower levels of fluorescence quenching | weaker but consistent spectrum shift | – | – | EC50 ([1]; synthetic compounds): ~200 µM
2 | CC(=O)N[C@H]1C(O)O[C@H](CO)[C@@H](O)[C@@H]1O[C@H](C)C(=O)O (stereo partly drawn) [N-acetylmuramic acid, reference compound] | – | – | – | Neither muramic nor N-acetylmuramic acid was active | – | –
3 | CC(=O)N[C@H]1C(O)O[C@H](CO)[C@@H](O)[C@@H]1O (stereo partly drawn) [NAG, N-Acetylglucosamine, reference compound] | 6.8 ± 0.32 | lower levels of fluorescence quenching | weaker but consistent spectrum shift | – | ~3000 | –
4 | CC(=O)NC1C(O)OC(CO)C(O)C1OC(C)C(=O)NC(C)C(=O)O [NMLA, N-acetylmurmyl-L-alanine] | – | – | – | – | ~8000 | –
5 | CC(=O)NC1C(O)OC(CO)C(O)C1OC(C)C(=O)NC(C)C(=O)NC(CCC(=O)O)C(N)=O [NMLADiQ, N-acetylmuramyl-L-alanyl-D isoglutamine] | 5.26 ± 0.47 | lower levels of fluorescence quenching | weaker but consistent spectrum shift | – | ~6000 | concentration above which the activity started to drop significantly [1]: above 20 mM; highest germ tube formation induced ([1]; at increased concentrations): ≤ 60%; times less active than MLADiQ ([1]; from I50): 600 times
6 | O=C(CO)[C@@H](O)[C@H](O)[C@H](O)CO [fructose, reference compound] | – | – | – | none of these compounds was found to have appreciable hypha-inducing activity | – | –
7 | OCC(O)CO [glycerol, reference compound] | – | – | – | none of these compounds was found to have appreciable hypha-inducing activity | – | –
8 | CC(O)C(=O)O (stereo not drawn) [lactic acid, reference compound] | – | – | – | none of these compounds was found to have appreciable hypha-inducing activity | – | –
9 | C[C@@H](O[C@H]1[C@H](O)[C@@H](CO)OC(O)[C@@H]1N)C(=O)O (stereo partly drawn) [muramic, muramic acid, reference compound] | – | – | – | Neither muramic nor N-acetylmuramic acid was active | – | –
